Assays:
CYP2B6 = molecular target: T1, CYP2B6 (Homo sapiens, UniProt P20813); assay: Fluorimetric CYP inhibition assay, CYP2B6-EFC; conditions: read-out: IC50 CYP2B6; substrate EFC
T1 sequence (P20813 1-491): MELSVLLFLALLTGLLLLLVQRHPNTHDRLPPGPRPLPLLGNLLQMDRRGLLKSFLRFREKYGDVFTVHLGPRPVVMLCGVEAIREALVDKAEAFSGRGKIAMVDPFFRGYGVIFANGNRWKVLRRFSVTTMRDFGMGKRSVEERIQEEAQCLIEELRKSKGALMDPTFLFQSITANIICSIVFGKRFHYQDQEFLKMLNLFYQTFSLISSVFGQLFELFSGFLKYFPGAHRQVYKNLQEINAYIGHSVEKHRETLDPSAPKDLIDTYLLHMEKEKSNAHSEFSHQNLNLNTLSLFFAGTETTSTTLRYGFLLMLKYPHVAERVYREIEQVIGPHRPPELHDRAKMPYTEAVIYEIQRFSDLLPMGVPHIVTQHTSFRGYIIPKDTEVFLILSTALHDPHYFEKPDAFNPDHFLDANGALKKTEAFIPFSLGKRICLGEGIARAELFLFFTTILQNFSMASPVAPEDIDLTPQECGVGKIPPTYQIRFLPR

CYP1A2 = molecular target: T2, CYP1A2 (Homo sapiens, UniProt P05177); assay: in vitro
T2 sequence (P05177 1-516): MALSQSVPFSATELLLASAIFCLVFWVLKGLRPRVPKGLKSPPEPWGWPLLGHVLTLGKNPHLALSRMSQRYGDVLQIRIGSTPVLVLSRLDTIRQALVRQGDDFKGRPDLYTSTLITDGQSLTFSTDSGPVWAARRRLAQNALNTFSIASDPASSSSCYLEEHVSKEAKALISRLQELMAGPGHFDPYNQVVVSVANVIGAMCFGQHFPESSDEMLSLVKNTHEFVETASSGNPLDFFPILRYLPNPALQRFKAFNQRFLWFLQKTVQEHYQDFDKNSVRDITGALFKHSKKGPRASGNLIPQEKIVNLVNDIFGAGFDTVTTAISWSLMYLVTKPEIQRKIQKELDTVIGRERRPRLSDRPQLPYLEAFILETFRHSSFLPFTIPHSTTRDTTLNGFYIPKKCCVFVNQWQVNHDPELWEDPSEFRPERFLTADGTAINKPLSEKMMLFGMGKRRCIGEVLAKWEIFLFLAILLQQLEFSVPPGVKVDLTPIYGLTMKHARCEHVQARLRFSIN

CYP2C8 [1] = molecular target: T3, CYP2C8 (Homo sapiens, UniProt P10632)
T3 sequence (P10632 1-490): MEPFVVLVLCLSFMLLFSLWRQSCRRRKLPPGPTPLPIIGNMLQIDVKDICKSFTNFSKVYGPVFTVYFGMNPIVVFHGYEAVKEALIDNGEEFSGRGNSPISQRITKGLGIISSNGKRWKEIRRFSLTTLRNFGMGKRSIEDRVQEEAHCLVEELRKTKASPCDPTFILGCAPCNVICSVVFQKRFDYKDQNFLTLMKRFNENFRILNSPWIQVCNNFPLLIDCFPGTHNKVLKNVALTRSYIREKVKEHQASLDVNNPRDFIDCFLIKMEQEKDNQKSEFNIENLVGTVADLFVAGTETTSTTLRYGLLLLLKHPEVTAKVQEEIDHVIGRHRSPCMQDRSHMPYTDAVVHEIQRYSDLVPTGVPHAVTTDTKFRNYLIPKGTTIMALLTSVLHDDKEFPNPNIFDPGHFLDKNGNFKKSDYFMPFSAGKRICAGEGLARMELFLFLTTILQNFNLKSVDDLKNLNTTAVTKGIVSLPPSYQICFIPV

CYP2C8 [2] = molecular target: T3, CYP2C8; assay: in vitro
Guinea pigs = assay: Hypolipidemic effect in Guinea pigs model (plasma TG, cholesterol, lipoproteins); type: in vivo, Guinea pig; conditions: Simvastatin table: gavage 10 mg/kg/bw, 21 days, n = 8
Description: • Guinea pigs (400-500 g) were obtained from Harlan (Israel) or Harlan (Netherlands). Animals were treated by gavage with Medica 16αα, Medica 16ββ and Simvastatin as indicated in 1% CMC for the specified treatment periods. During treatment period the animals were weighed and observed daily.
Non-fasted guinea pigs were anesthetized with ketamine (75 mg/kg body weight) and xylazine (6 mg/kg body weight), followed by S.C. abdominal injections of 2% lignocaine. Anesthetized animals were bled into tubes containing EDTA. Plasma chylomicrons were removed by centrifugation (20 min, 30K rpm, TST 55.5 rotor). Plasma TG was assayed by Roche/Hitachi kit. Plasma cholesterol was assayed by Roche Diagnostic's kit.
Chylomicrons-free plasma was subjected to continuous KBr-gradient centrifugation (24 h, 40K rpm, SW41 rotor), followed by fractionating gradient tubes into 0.5 ml fractions. TG, cholesterol and protein of each fraction were measured as described above. […]
Guinea pigs were treated by gavage with M16αα, M16ββ or with Simvastatin, weighed and observed daily. Plasma triglycerides (TG) and cholesterol, as well as plasma lipoproteins and their composition were examined on days 21 and 22 (as specified in the following tables) of the experiments, as described in Experimental procedures. As clearly shown by Table 3 and FIG. 1, treatment with M16αα decreases plasma triglycerides (TG).

CYP2C9 = CYP2C9 (Homo sapiens, UniProt P11712); assay: Fluorimetric CYP inhibition assay, CYP2C9-MFC; conditions: human, MFC; for inhibition at 0 μM: positive control 0.00 μM (second line); for inhibition at 0.01 μM: positive control 0.01 μM (first line); for inhibition at 0.02 μM: positive control 0.02 μM; for inhibition at 0.06 μM: positive control 0.06 μM; for inhibition at 1.67 μM: positive control 1.67 μM
Sequence of CYP2C9 (P11712 whole entry): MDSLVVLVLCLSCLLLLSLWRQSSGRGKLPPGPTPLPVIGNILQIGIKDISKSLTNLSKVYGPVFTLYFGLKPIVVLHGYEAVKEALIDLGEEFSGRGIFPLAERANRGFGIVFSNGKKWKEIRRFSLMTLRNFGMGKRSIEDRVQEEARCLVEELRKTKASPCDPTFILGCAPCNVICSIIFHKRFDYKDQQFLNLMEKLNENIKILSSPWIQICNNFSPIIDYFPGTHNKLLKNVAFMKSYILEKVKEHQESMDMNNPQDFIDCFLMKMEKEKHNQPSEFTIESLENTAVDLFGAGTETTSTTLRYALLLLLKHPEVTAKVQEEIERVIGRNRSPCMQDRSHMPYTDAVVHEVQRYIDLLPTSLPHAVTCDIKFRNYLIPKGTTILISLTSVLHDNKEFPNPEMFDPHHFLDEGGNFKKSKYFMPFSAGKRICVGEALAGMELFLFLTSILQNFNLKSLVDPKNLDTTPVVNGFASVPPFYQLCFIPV

`N[C@@H]1C[C@H]1c1ccccc1` (racemic) [Tranylcypromine, reference compound] gave an IC50 (CYP2B6) of 5.9 µM.
`Cc1nc2c([nH]1)c(=O)n(C)c(=O)n2Cc1ccco1` [Furafylline, reference compound] gave an inhibition at 5.56 μM (CYP1A2; % Inhibition (set 1)) of 90% and an inhibition at 50 μM (CYP1A2; % Inhibition (set 2)) of 99%.
For `O=c1c(O)c(-c2ccc(O)c(O)c2)oc2cc(O)cc(O)c12` [Quercetin, reference compound], the IC50 (CYP2C8 [1]) was 1.4 µM, the “% Inhibition (set 2)” value (CYP2C8 [1]; 0.05 μM) was 0% and the inhibition at 0.05 μM (CYP2C8 [2]; % Inhibition (set 1)) was 8%. It also gave an inhibition at 0.41 μM (CYP2C8 [2]; % Inhibition (set 1)) of 16%, an inhibition at 1.23 μM (CYP2C8 [2]; % Inhibition (set 1)) of 51% and an inhibition at 3.7 μM (CYP2C8 [2]; % Inhibition (set 1)) of 88%. For the same molecule, the inhibition at 11.11 μM (CYP2C8 [2]; % Inhibition (set 1)) was 100%, the inhibition at 33.33 μM (CYP2C8 [2]; % Inhibition (set 1)) was 100% and the inhibition at 100 μM (CYP2C8 [2]; % Inhibition (set 1)) was 100%. It also gave an inhibition at 0.05 μM (CYP2C8 [2]; % Inhibition (set 2)) of 0%, an inhibition at 0.41 μM (CYP2C8 [2]; % Inhibition (set 2)) of 9% and an inhibition at 1.23 μM (CYP2C8 [2]; % Inhibition (set 2)) of 32%. The inhibition at 3.7 μM (CYP2C8 [2]; % Inhibition (set 2)) was 89%, the inhibition at 11.11 μM (CYP2C8 [2]; % Inhibition (set 2)) was 98% and the inhibition at 33.33 μM (CYP2C8 [2]; % Inhibition (set 2)) was 100%. For the same molecule, the inhibition at 100 μM (CYP2C8 [2]; % Inhibition (set 2)) was 100%.
In the case of `CCC(C)(C)C(=O)O[C@H]1C[C@@H](C)C=C2C=C[C@H](C)[C@H](CC[C@@H]3C[C@@H](O)CC(=O)O3)[C@H]21` [Simvastatin, reference compound], the “Plasma TG” value (Guinea pigs) is reported as 83 ± 16 mg % and the Plasma cholesterol (Guinea pigs; *p < 0.05) is reported as 23 ± 2.0* mg %.
Molecule `Nc1ccc(S(=O)(=O)Nc2ccnn2-c2ccccc2)cc1` [Sulfaphenazole] has an inhibition at 0 μM (CYP2C9; % Inhibition (set 1)) of 0%, an inhibition at 0.01 μM (CYP2C9; % Inhibition (set 1)) of 0% and an inhibition at 0.02 μM (CYP2C9; % Inhibition (set 1)) of 3%. It also gave an inhibition at 0.06 μM (CYP2C9; % Inhibition (set 1)) of 11%, an inhibition at 1.67 μM (CYP2C9; % Inhibition (set 1)) of 76% and an inhibition at 5 μM (CYP2C9; % Inhibition (set 1), positive control 5.00 μM) of 89%. For the same molecule, the inhibition at 0 μM (CYP2C9; % Inhibition (set 2)) was 0%, the inhibition at 0.01 μM (CYP2C9; % Inhibition (set 2)) was 1% and the inhibition at 0.02 μM (CYP2C9; % Inhibition (set 2)) was 3%. It also gave an inhibition at 0.06 μM (CYP2C9; % Inhibition (set 2)) of 6% and an inhibition at 1.67 μM (CYP2C9; % Inhibition (set 2)) of 74%.
